Data set [1] is described as follows: Uterine weight (E2-induced hypertrophy) in ovariectomized guinea pigs. It counts as in vivo, guinea pig. On the procedure:
Maintenance of animals and treatment. Ovariectomized (ovx) and intact female guinea pigs were purchased from Hilltop Laboratories (Scottsdale, Pa.); ovx animals were 8 weeks old at the time of surgery. 17β-estradiol (E2) was purchased from Sigma (St. Louis, Mo.). Throughout the study, the animals were fed ad libitum in a controlled lighting environment (12 h/12 h light/dark cycles). After the surgery, the ovx guinea pigs were put on a casein-based, soy-free diet (Purina, Richmond, Ind.) to exclude the presence of phytosteroids in the diet. The intact animals also began receiving soy-free food at approximately 8 weeks of age. […] E2 was administered per os by powdering the hormone into the soy-free chow. Prior to the beginning of the treatment, all animals were weighed. The average daily food intake for each animal using this particular diet was determined in a preliminary experiment.
Tissue collection. At the end of the treatment, all animals were sacrificed by decapitation. Trunk blood was collected for determination of E2 levels in the serum by radioimmunoassay (Diagnostic Products Laboratory). Uteri were removed and weighed to establish E2-induced hypertrophy. The brains were immediately removed, and the cerebellum was dissected away from each brain. The rest of the brain was divided into hemispheres which were snap-frozen and stored at −80° C.
Seven ovx guinea pigs (8 weeks old at the time of ovx) were used. After ovx, the animals were fed soy-free, casein-based diet to avoid the consumption of estrogenic phytosteroids. […] E2 was administered per os by powdering the hormone into the soy-free chow. […] After the treatment, all animals were sacrificed, and blood, uteri, and brains were collected for analysis. Uterine weights and serum E2 levels were determined to document the hormonal status. The levels of Aβ40, Aβ42, and sAPPα in brain tissue were determined using Aβ40- and Aβ42-specific ELISA assays and quantitative immunoblotting, respectively, as described in Methods.
At the end of the E2 treatment, all animals were sacrificed by decapitation, and blood, uteri, and brains were isolated and subjected to analysis.

The test system of a further data set is brain Aβ (Aβ40, Aβ42). Description: Brain Aβ40, Aβ42 and total Aβ levels by ELISA of DEA brain extracts of ovariectomized guinea pigs. It counts as in vivo, guinea pig. The method, then: Maintenance of animals and treatment. Ovariectomized (ovx) and intact female guinea pigs were purchased from Hilltop Laboratories (Scottsdale, Pa.); ovx animals were 8 weeks old at the time of surgery. […] Throughout the study, the animals were fed ad libitum in a controlled lighting environment (12 h/12 h light/dark cycles). After the surgery, the ovx guinea pigs were put on a casein-based, soy-free diet (Purina, Richmond, Ind.) to exclude the presence of phytosteroids in the diet. The intact animals also began receiving soy-free food at approximately 8 weeks of age. […] Prior to the beginning of the treatment, all animals were weighed. The average daily food intake for each animal using this particular diet was determined in a preliminary experiment.
Tissue collection. At the end of the treatment, all animals were sacrificed by decapitation. […] The brains were immediately removed, and the cerebellum was dissected away from each brain. The rest of the brain was divided into hemispheres which were snap-frozen and stored at −80° C.
Preparation of Brain Extracts. Soluble Proteins from the Brains were Recovered using a modification of an established protocol (Savage et al., J. Neurosci., 1998, 18:1743-52). Briefly, the hemispheres were homogenized in 0.2% diethylamine (DEA)/50 mM NaCl at 1:10 w/v ratio, with 5-6 strokes of a Dounce homogenizer. The DEA homogenate was centrifuged for 90 min at 100,000 g. The DEA supernatants were neutralized to pH about 8.0 by addition of 1/10th vol. of 0.5M Tris-Cl pH 6.8, then aliquoted and snap-frozen. The pellets of the DEA extracts were solubilized in 2% SDS/PBS containing a cocktail of protease inhibitors (“Complete”, Boehringer Mannheim, Germany), sonicated and boiled. The protein concentrations of the DEA and SDS supernatants were determined using the BCA reagent assay kit (Pierce, Rockford, Ill.).
Detection of sAPPα, flAPP, Aβ40 and Aβ42. The amino acid sequence of APP from guinea pigs is 97% identical to the human APP homologue and the Aβ region is 100% identical to human Aβ (Beck et al., Biochim. Biophys. Acta, 1997, 1351:17-21), thus enabling use of well characterized Aβ antibodies to study the effects of estrogen on APP metabolism.
The levels of Aβ40 and Aβ42 were determined by Aβ40- and Aβ42-specific ELISA assays (Mehta et al, Neurosci. Lett., 1998, 241:13-16). For each animal, the levels of Aβ40, Aβ42, and total Aβ were standardized to brain tissue weight and expressed as ng (Aβ)/g (brain tissue, wet weight). In all experiments, animals were coded prior to tissue collection, and the treatment status of each animal was unknown to the investigators at the time of the assays.
Seven ovx guinea pigs (8 weeks old at the time of ovx) were used. After ovx, the animals were fed soy-free, casein-based diet to avoid the consumption of estrogenic phytosteroids. […] After the treatment, all animals were sacrificed, and blood, uteri, and brains were collected for analysis. […] The levels of Aβ40, Aβ42, and sAPPα in brain tissue were determined using Aβ40- and Aβ42-specific ELISA assays and quantitative immunoblotting, respectively, as described in Methods.
(In an ELISA, binding on a coated surface is turned into a signal by an enzyme label.)

A short description of data set [2]: Serum E2 levels in ovariectomized APP transgenic rodents. The format is in vivo, transgenic mice and rats (human APP). The following applies: ovx APP transgenic rodents, E2 in chow 10 days, compared to untreated ovx. The text has this: (§1) Transgenic APP and APP/PS rodents. Transgenic animals relevant to Alzheimer's Disease have been reviewed (Seabrook and Rosahl, Neuropharmacology, 1999, 38:1-17; see, Detailed Description, supra). Both mice and rats have been made transgenic for APP, for PS1 and for both genes, and with wild-type and FAD mutant forms of the genes,. One group of these animals is ovariectomized. 17β-Estradiol (E2) is purchased from Sigma (St. Louis, Mo.). Animals are fed ad libitum in a controlled lighting environment, using a casine-based, soy-free diet, as described in Example 1. […] E2 is administered per os by powdering the hormone in the soy-free chow. All animals are weighed at the beginning prior to treatment. Average daily food intake is determined prior to treatment as well.
(§2) Tissue collection. After treatment, all animals are sacrificed by decapitation. Trunk blood is collected for determination of E2 levels. Uteri are removed and weighed to establish the presence of atrophy due to estrogen deficiency or E2-induced hypertrophy. Brains are immediately removed and the cerebellum dissected away. The brain is divided into hemispheres which are snap-frozen and stored at −80° C.

Data set [3] can be described thus: Uterine weight in ovariectomized APP transgenic rodents. The format is in vivo, transgenic mice and rats (human APP). The following applies: ovx APP transgenic rodents, E2 in chow 10 days, compared to untreated ovx.
Excerpt: as §1, §2

For the next data set, the system named is brain Aβ. Description: Brain Aβ levels in ovariectomized APP transgenic rodents. The format is in vivo, transgenic mice and rats (human APP). The conditions noted are these: ovx APP transgenic rodents; approaching the levels found in intact animals. The text has this:
Preparation of Brain Extracts.
Detection of sAPPα, flAPP, Aβ40 and Aβ42.

Data set [4] has as its system Aβ40 and Aβ42 peptides. The following applies: physiological concentrations; rodent primary neuronal (embryonic cerebral cortex) cultures; cited from earlier work.
The test system of data set [5] is Aβ40 and Aβ42 peptides. The conditions noted are these: physiological concentrations; human primary neuronal (embryonic cerebral cortex) cultures; cited from earlier work.
[6] abbreviates: ovx + high-dose E2, 5 mg E2/kg BW/day per os, 10 days.
Setting [7] is: ovx + low-dose E2, 1 mg E2/kg BW/day per os, 10 days.

We go through one molecule from US20080085244A1, “Methods for identifying and using amyloid-inhibitory compounds” (Wyeth, priority 1999, published 2008).

Molecules are shown by their SMILES. Read-outs that look alike come from different tables or passages of the source.

As to `C[C@]12CC[C@@H]3c4ccc(O)cc4CC[C@H]3[C@@H]1CC[C@@H]2O` [E2, 17β-estradiol], the “increase in uterine weight, ovx+E2 group compared to ovx group” value in data set [1] (first experiment, 1 mg E2/kg BW/day per os, 10 days, p=0.0003) is “greater than 3 fold”. Besides, the “state of uteri” value is recorded as “uterine hypertrophy” in data set [1] (high-dose E2 for 10 days, weights did not exceed the low-dose group) and “hypertrophied” in data set [1] (low-dose E2 for 10 days, weights comparable to or higher than intact group). Also, the “Uterine weight mean +/− SEM” value is 1.03 ± 0.08 g in data set [1] (setting [6]) and 1.4 ± 0.18 g in data set [1] (setting [7]). Besides, the Uterine weight median in data set [1] (setting [6]) worked out at 1.055 g; in data set [1] (setting [7]) it was 1.37 g. For the same molecule, the “average decrease in total Aβ levels in brain compared to ovx group” value in the data set with brain Aβ (Aβ40, Aβ42) (first experiment, 1 mg E2/kg BW/day per os, 10 days, p=0.09) stood at 20%. Besides, the “Total Aβ (median)” value in the data set with brain Aβ (Aβ40, Aβ42) (setting [6]) was 2.094 ngAβ/g brain tissue; in the data set on brain Aβ (Aβ40, Aβ42) (setting [7]), 2.063 ngAβ/g brain tissue. The “Total Aβ mean +/− SEM” value in the data set with brain Aβ (Aβ40, Aβ42) (setting [6]) is on record as 1.998 +/− 0.175 ngAβ/g brain tissue; with brain Aβ (Aβ40, Aβ42) (setting [7]), 2.023 +/− 0.134 ngAβ/g brain tissue. The “average decrease in ovx-associated increase in brain Aβ levels (summary statement)” value with brain Aβ (Aβ40, Aβ42) (ovx guinea pigs, E2 for ten days beginning 8 weeks after ovx, p<0.01) is on record as 20%. For the same molecule, in the data set on brain Aβ (Aβ40, Aβ42) (second experiment, low-dose E2 10 days, p<0.01), the “average decrease for Aβ40 compared to ovx” value amounted to 18%. The “average decrease for Aβ42 compared to ovx” value in the data set on brain Aβ (Aβ40, Aβ42) (second experiment, low-dose E2 10 days, p=0.033) came to 21%. The “average decrease of total brain Aβ levels compared to ovx” value in the data set on brain Aβ (Aβ40, Aβ42) (second experiment, low-dose E2 (1 mg/kg BW/day) 10 days, p<0.01) was 18%. The “serum E2 levels after oral E2” value in data set [2] was “dramatic increase”. Moreover, the “uterine effect of oral E2” value in data set [3] is “uterine hypertrophy”. The “levels of brain Aβ after E2 treatment” value in the data set on brain Aβ is on record as “decrease”. Moreover, the “levels of Aβ40 and Aβ42 peptides released” value is given as “decreased” in the data set with Aβ40 and Aβ42 peptides [4]; “decreased” in the data set on Aβ40 and Aβ42 peptides [5].
